pKi: −log10 of the molar value.
Biological target: T1, rat mGluR5 receptor (Rattus norvegicus, UniProt P31424)
T1 construct: expressed in transfected cells; host or cells: HEK-293
Assay: [3H]-MPEP displacement binding assay, HEK-293 cell membranes expressing rat mGluR5
Conditions: for inhibition at 10 µM: 1 h, single point, @ 10 μm compound, Table 1A, read-out: PCT INHIB (%) @ 10 μm; for pKi: read-out: Median Ki
Procedure: MGluR5 expressing HEK-293 cells were scraped off a plate, transferred to centrifuge tubes and washed twice by centrifugation (2000 rpm for 10 minutes, at 4° C.) in buffer (50 mM Tris pH 7.5). The resulting pellets were aliquoted and stored at minus 80° C. On the day of assay, the cells were thawed on ice and re-suspended in buffer. The binding assay was performed in a 96 well microtiter plate in a total volume of […]. Non-specific binding was determined in the presence of 10 μM MPEP. The binding reaction included a final radioligand [^3H]-MPEP concentration of 4 nM and 12-25 μg membrane protein per well. Following a 60 minute incubation at room temperature, the reaction was terminated by the addition of ice cold buffer and rapid filtration through a GF/B filter that had been presoaked for 30 minutes in 0.5% PEI. Compounds were initially tested in a single point assay to determine percent inhibition at 10 μM.
Percent inhibition and Ki values were generated by GraphPad Prism and Excel Fit. IC50 values were calculated using GraphPad by fitting to a 1 or 2 site-binding model.
where [L] is the concentration of free radioligand and Kd is the dissociation constant of radioligand for the receptor.

T1 sequence (P31424 21-1203): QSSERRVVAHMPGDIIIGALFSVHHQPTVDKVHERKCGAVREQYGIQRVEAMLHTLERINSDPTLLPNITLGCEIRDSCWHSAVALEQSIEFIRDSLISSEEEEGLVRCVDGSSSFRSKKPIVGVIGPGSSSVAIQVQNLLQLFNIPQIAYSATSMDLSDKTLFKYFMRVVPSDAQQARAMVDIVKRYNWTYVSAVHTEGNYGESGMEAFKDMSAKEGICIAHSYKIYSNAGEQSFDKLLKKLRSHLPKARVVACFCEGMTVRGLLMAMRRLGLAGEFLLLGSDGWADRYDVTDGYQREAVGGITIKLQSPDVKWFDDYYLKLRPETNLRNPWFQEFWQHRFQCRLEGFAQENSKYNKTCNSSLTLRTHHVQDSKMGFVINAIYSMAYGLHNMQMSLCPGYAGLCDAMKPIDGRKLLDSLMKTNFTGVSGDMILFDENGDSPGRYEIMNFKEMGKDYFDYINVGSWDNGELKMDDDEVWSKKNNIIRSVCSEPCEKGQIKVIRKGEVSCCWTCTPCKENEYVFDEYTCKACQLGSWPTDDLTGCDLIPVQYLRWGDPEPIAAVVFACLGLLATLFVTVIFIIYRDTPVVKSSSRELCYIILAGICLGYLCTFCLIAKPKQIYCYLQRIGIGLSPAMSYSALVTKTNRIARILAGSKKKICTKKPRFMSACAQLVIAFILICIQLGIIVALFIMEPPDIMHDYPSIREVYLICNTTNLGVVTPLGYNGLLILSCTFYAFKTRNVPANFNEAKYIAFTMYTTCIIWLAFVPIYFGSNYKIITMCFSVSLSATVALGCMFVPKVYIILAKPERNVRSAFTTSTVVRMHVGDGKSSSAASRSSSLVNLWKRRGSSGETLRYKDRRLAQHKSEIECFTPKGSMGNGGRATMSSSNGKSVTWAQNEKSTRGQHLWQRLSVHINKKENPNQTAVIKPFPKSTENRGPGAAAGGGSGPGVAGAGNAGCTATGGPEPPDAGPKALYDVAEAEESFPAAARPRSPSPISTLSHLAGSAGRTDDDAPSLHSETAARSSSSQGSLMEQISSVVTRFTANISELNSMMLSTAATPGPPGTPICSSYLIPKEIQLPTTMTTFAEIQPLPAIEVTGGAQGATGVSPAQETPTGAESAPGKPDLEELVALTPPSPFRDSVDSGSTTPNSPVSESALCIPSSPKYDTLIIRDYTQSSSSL

Row | inhibition at 10 µM [%] | pKi | Compound
1 | 79 | 6.32 | Cc1ccc(C(=O)N2CCN(c3ccccn3)CC2)cc1C#Cc1cccc(N)c1 [Compound 36, 3-({2-methyl-5-[(4-pyridin-2-ylpiperazin-1-yl)carbonyl]phenyl}ethynyl)aniline]
2 | 74 | 7.26 | COc1ccc(C(=O)N2CCN(c3ccccn3)CC2)cc1C#Cc1ccc(F)c(C)c1 [Compound 37, 1-{3-[(4-fluoro-3-methylphenyl)ethynyl]-4-methoxybenzoyl}-4-pyridin-2-ylpiperazine]
3 | 83 | 7.24 | Cc1cccc(C#Cc2cc(C(=O)N3CCN(c4ccccn4)CC3)ccc2C)c1 [Compound 39, 1-{4-methyl-3-[(3-methylphenyl)ethynyl]benzoyl}-4-pyridin-2-ylpiperazine]
4 | 0 |  | COc1cc(C#Cc2cc(C(=O)N3CCN(c4ccccn4)CC3)ccc2C)cc(OC)c1 [Compound 40, 1-{3-[(3,5-dimethoxyphenyl)ethynyl]-4-methylbenzoyl}-4-pyridin-2-ylpiperazine]
5 | 0 |  | Cc1cc(C)c(C#Cc2cc(C(=O)N3CCN(c4ccccn4)CC3)ccc2C)cc1C [Compound 41, 1-{4-methyl-3-[(2,4,5-trimethylphenyl)ethynyl]benzoyl}-4-pyridin-2-ylpiperazine]
6 | 96 | 8.23 | Cc1ccc(C(=O)N2CCN(c3ccccn3)CC2)cc1C#Cc1ccccn1 [Compound 42, 1-[4-methyl-3-(pyridin-2-ylethynyl)benzoyl]-4-pyridin-2-ylpiperazine]
7 | 82 | 6.56 | COc1ccc(C(=O)N2CCN(c3ccccn3)CC2)cc1C#Cc1cccc(C(F)(F)F)c1 [Compound 43, 1-(4-methoxy-3-{[3-(trifluoromethyl)phenyl]ethynyl}benzoyl)-4-pyridin-2-ylpiperazine]
8 | 0 |  | COc1ccc(C(=O)N2CCN(c3ccccn3)CC2)cc1C#Cc1cc(C(F)(F)F)cc(C(F)(F)F)c1 [Compound 44, 1-(3-{[3,5-bis(trifluoromethyl)phenyl]ethynyl}-4-methoxybenzoyl)-4-pyridin-2-ylpiperazine]
9 | 68 | 6.00 | COc1ccc(C(=O)N2CCN(c3ccccn3)CC2)cc1C#Cc1ccncc1 [Compound 45, 1-[4-methoxy-3-(pyridin-4-ylethynyl)benzoyl]-4-pyridin-2-ylpiperazine]
10 | 71 | 5.88 | Cc1ccc(C(=O)N2CCN(c3ccccn3)CC2)cc1C#Cc1cccc(O)c1 [Compound 46, 3-({2-methyl-5-[(4-pyridin-2-ylpiperazin-1-yl)carbonyl]phenyl}ethynyl)phenol]
11 | 0 |  | Cc1ccc(C(=O)N2CCN(c3ccccn3)CC2)cc1C#Cc1cc(C(F)(F)F)cc(C(F)(F)F)c1 [Compound 47, 1-(3-{[3,5-bis(trifluoromethyl)phenyl]ethynyl}-4-methylbenzoyl)-4-pyridin-2-ylpiperazine]
12 | 49 |  | Cc1ccc(C(=O)N2CCN(c3ccccn3)CC2)cc1C#Cc1ccncc1 [Compound 48, 1-[4-methyl-3-(pyridin-4-ylethynyl)benzoyl]-4-pyridin-2-ylpiperazine]
13 | 90 | 6.77 | COc1ccc(C(=O)N2CCN(c3cnccn3)CC2)cc1C#CC1=CCCCC1 [Compound 50, 2-{4-[3-(cyclohex-1-en-1-ylethynyl)-4-methoxybenzoyl]piperazin-1-yl}pyrazine]
14 | 92 | 7.47 | COc1ccc(C(=O)N2CCN(c3cnccn3)CC2)cc1C#CCc1ccccc1 [Compound 51, 2-{4-[4-methoxy-3-(3-phenylprop-1-yn-1-yl)benzoyl]piperazin-1-yl}pyrazine]
15 | 81 | 7.22 | COc1cccc(C#Cc2cc(C(=O)N3CCN(c4cnccn4)CC3)ccc2OC)c1 [Compound 52, 2-(4-{4-methoxy-3-[(3-methoxyphenyl)ethynyl]benzoyl}piperazin-1-yl)pyrazine]
